From patent US20250163119A1, “COMPOUNDS FOR THE TREATMENT OF DIABETES OR OBESITY” (Eli Lilly and Company, priority 2023, published 2025)
*1 amine or outer side, *2 acyl side, *3 side chain or, on linkers, in order; H or OH if unused. Where a SMILES comes first, the peptide text is derived from it. Side-chain parts run from the residue outwards. [ ]: non-standard residue; d: D form. The star is where a group is joined. C20 diacid = O=C(O)CCCCCCCCCCCCCCCCCCC(=O)*; γGlu = O=C(O)[C@H](CCC(=O)[*:2])N[*:1]; NMeI = CC[C@H](C)[C@H](NC)C(=O)O; αMeL = CC(C)C[C@](C)(N)C(=O)O; AEEA = NCCOCCOCC(=O)O

Legend:
[1] = In vivo Diet Induced Obesity (DIO) model, chronic dose administration; parameters: species or system C57BL6 mice; details: DIO mice; 30 nmol/kg s.c.; pooled data from four studies; mean
Source text: The DIO model represents a pre-diabetic state that is obese. These animals, although not diabetic, display insulin resistance, dyslipidemia, and hepatic steatosis, all characteristics of metabolic syndrome, after being placed on a high fat (60% Kcal from fat) diet for 12 weeks (Surwit R S et al., Diet-induced type II diabetes in C57BL/6J mice. Diabetes 37(9): 1163-7 (1988)). Assessment of body weight change from start of study, fat mass change from start of study, lean mass change from start of study, and fasting glucose or glucose change from vehicle in same study substantially as set forth below. In the case of SEQ ID NO:55 combined with SEQ ID NO:25, tibialis anterior muscle weight at the end of the study is also reported as a measure of effect on muscle weight.
Male C57BL6 mice 22-24 weeks old (on high fat diet since 6 weeks of age, Jackson Laboratories 3800050; Bar Harbor, ME) are housed 1 per cage and maintained on D12492 chow (60% lard high fat diet: Research diets New Brunswick NJ) for 2 weeks in the vivarium and on a normal light cycle prior to experiment start. Animals were randomized by body weight to treatment groups using block randomization. On day 1 of experiment animals and food were weighed and recorded. Animals were separated in to two equal groups and started on separate days (data combined) to simplify the logistics of the study. Animals are given a single subcutaneous injection (s.c.) of the indicated treatment in 40 mM Tris HCl pH8.0+50 mM D-mannitol+0.02% polysorbate 80 on days 1(start), 4, 7, 10, and 13 of experiment at a volume of 10 ml/kg. […]
From study day 1 to study day 14 the animals were weighed daily prior to dose administration. […] The weight was recorded.
On Study Day 14, the animals were fasted overnight (approximately 16-18 hours) by placing them in a clean cage with a clean wire rack without food but allowed access to water, and on day 15 animals were subjected to fasting blood glucose measurement as follows; the tail of the animal was resected and a blood samples was collected and blood glucose was measured using an Accu-Chek Aviva glucose meter (Roche; Indianapolis, IN). Statistical significance ([…] vs. 0 dose; one way ANOVA Dunnett's post hoc) was calculated using GraphPad Prism software (La Jolla, Ca).
On study day 1 and study day 14 body composition was analyzed using Quantitative Nuclear Magnetic Resonance EchoMRI analyzer (EMR-166-s, EchoMRI; Houston Tx). […] Change in mass is calculated by subtraction of […].
On study day 15, following tail bleed for blood glucose, animals were sacrificed by C02 asphyxiation and the right tibialis anterior muscle was dissected. […] Weight was recorded and, in the case of relative weight, Tibialis anterior weight in milligrams was divided by body weight in grams. […]

[2] = molecular target: T1, CRHR1 receptor (Y79 cells) (Homo sapiens, UniProt P34998); assay: Human Y79 cAMP assay (native cell line expressing endogenous CRHR1); format: cell-based; details: human Y79 cells (CRHR1, no detectable CRHR2); mean ± SE
T1 construct: host or cells: Y79 human retinoblastoma cells
T1 sequence (P34998 24-415): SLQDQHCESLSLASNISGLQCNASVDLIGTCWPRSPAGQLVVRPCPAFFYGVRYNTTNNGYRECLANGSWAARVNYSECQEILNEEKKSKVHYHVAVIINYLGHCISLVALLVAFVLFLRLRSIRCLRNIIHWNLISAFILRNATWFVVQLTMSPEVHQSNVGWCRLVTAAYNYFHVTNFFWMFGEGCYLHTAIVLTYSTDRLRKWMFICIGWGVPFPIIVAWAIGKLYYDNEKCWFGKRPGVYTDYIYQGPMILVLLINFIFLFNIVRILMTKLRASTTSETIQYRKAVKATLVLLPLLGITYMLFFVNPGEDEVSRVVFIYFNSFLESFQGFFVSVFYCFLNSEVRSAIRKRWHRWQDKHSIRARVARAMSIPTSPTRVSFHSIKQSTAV
Procedure: Y79 cells, a human retinoblastoma cell line, express a high level of human CRHR1 with no detectable CRHR2. A7r5 cells, a rat aortic smooth muscle cell line, only express CRHR2 receptor with no detectable CRHR1. The rat CRHR2 gene shares 93% homology of nucleotides sequences with human CRHR2 and responds to human UCN2. Therefore, these two native cell lines were used for additional characterization of polypeptide selectivity.
Y79 cells were grown in a suspension culture as recommended by ATCC in the media containing RPMI (Gibco Cat #11875093) and 20% FBS (Gibco dialyzed Cat #26400044). Y79 cells were incubated at 37° C. with 5% CO2. A subcultivation was performed by removing the supernatant after centrifugation and suspending the cell pellet in fresh medium (A subcultivation ratio was 1:5). […]
The amount of intracellular cAMP was quantitated using HTRF technology (Homogeneous Time Resolved Fluorescence; Cisbio) as per vendor instructions. […] The HTRF signal was immediately detected using an Envision plate reader (Perkin-Elmer) to calculate the ratio of fluorescence at 665 to 620 nm. […]
Raw fluorescence data for concentration curves of the peptides in Table 2 and Table 3 were converted to cAMP amount (pmol/well) using a cAMP standard curve generated for each experiment.

Row | SMILES | Fat mass change [1] [g] | body weight change [1] [g] | fasting blood glucose (% reduction from vehicle) [1] [%] | lean mass change [1] [g] | EC50 [2] [pM]
1 | CC[C@H](C)[C@H](NC)C(=O)N[C@H](C(=O)N[C@@H](CC(C)C)C(=O)N[C@@H](CO)C(=O)N[C@@H](CC(C)C)C(=O)N[C@@H](CC(=O)O)C(=O)N[C@H](C(=O)N1CCC[C@H]1C(=O)N[C@H](C(=O)NCC(=O)N[C@@H](CC(C)C)C(=O)N[C@@H](CC(C)C)C(=O)N[C@@H](CCC(N)=O)C(=O)N[C@H](C(=O)N[C@@H](CC(C)C)C(=O)N[C@@H](CC(C)C)C(=O)N[C@@H](CCC(=O)O)C(=O)N[C@@H](CCC(N)=O)C(=O)N[C@@H](CCC(=O)O)C(=O)N[C@@H](CCCCN)C(=O)N[C@@H](CCC(N)=O)C(=O)N[C@@H](CCC(=O)O)C(=O)N[C@@H](CCCCN)C(=O)N[C@@H](CCC(=O)O)C(=O)N[C@@H](CCCCN)C(=O)N[C@@H](CCC(N)=O)C(=O)N[C@@H](CCC(N)=O)C(=O)N[C@@H](C)C(=O)N[C@@H](CCCCNC(=O)COCCOCCNC(=O)COCCOCCNC(=O)CC[C@H](NC(=O)CC[C@H](NC(=O)CCCCCCCCCCCCCCCCCCC(=O)O)C(=O)O)C(=O)O)C(=O)N[C@H](C(=O)N[C@@H](CC(N)=O)C(=O)N[C@@H](C)C(=O)N[C@@H](CCC(N)=O)C(=O)N[C@H](C(=O)N[C@@H](CC(C)C)C(=O)N[C@@H](C)C(=O)N[C@@H](CCC(N)=O)C(=O)N[C@H](C(N)=O)C(C)C)[C@@H](C)CC)[C@@H](C)O)[C@@H](C)CC)[C@@H](C)CC)C(C)C)C(C)C [SEQ ID NO: 54] (H-[NMeI]VLSLDVPIGLLQILLEQEKQEKEKQQAK([AEEA-AEEA-γGlu-γGlu-C20 diacid])TNAQILAQV-NH2) | -4.05 | -3.75 | 37.01 | 0.60 | 
2 | CC[C@H](C)[C@H](NC)C(=O)N[C@H](C(=O)N[C@H](C(=O)N[C@@H](CO)C(=O)N[C@@H](CC(C)C)C(=O)N[C@@H](CC(=O)O)C(=O)N[C@H](C(=O)N1CCC[C@H]1C(=O)N[C@H](C(=O)NCC(=O)N[C@@](C)(CC(C)C)C(=O)N[C@@H](CC(C)C)C(=O)N[C@@H](CCC(N)=O)C(=O)N[C@@H](CCCCN)C(=O)N[C@@H](CC(C)C)C(=O)N[C@H](C(=O)N[C@@H](CCC(=O)O)C(=O)N[C@@H](CCC(N)=O)C(=O)N[C@@H](CCC(=O)O)C(=O)N[C@@H](CCCCN)C(=O)N[C@@H](CCC(N)=O)C(=O)N[C@@H](CCC(=O)O)C(=O)N[C@@H](CCCCN)C(=O)N[C@@H](CCC(=O)O)C(=O)N[C@@H](CCCCN)C(=O)N[C@@H](CCC(N)=O)C(=O)N[C@@H](CCC(N)=O)C(=O)N[C@@H](C)C(=O)N[C@@H](CCCCNC(=O)COCCOCCNC(=O)COCCOCCNC(=O)CC[C@H](NC(=O)CCCCCCCCCCCCCCCCCCC(=O)O)C(=O)O)C(=O)N[C@@H](CCC(=O)O)C(=O)N[C@@H](CC(N)=O)C(=O)N[C@H](C(=O)N[C@@H](CCC(=O)O)C(=O)N[C@H](C(=O)N[C@@H](CC(C)C)C(=O)N[C@@H](C)C(=O)N[C@@H](CCC(N)=O)C(=O)N[C@H](C(N)=O)C(C)C)[C@@H](C)CC)[C@@H](C)O)[C@@H](C)CC)[C@@H](C)CC)C(C)C)[C@@H](C)O)C(C)C [SEQ ID NO: 49, (NMeI) VTSLDVPIG αMeL LQKLIEQEKQEKEKQQAK((2-[2-(2-Amino-ethoxy)-ethoxy]-acetyl)2-γE-CO-(CH2)18-CO2H)ENTEILAQV-NH2] (H-[NMeI]VTSLDVPIG[αMeL]LQKLIEQEKQEKEKQQAK([AEEA-AEEA-γGlu-C20 diacid])ENTEILAQV-NH2) |  |  |  |  | > 1e+07
3 | CC[C@H](C)[C@H](NC)C(=O)N[C@H](C(=O)N[C@H](C(=O)N[C@@H](CO)C(=O)N[C@@H](CC(C)C)C(=O)N[C@@H](CC(=O)O)C(=O)N[C@H](C(=O)N1CCC[C@H]1C(=O)N[C@H](C(=O)NCC(=O)N[C@@](C)(CC(C)C)C(=O)N[C@@H](CC(C)C)C(=O)N[C@@H](CCC(N)=O)C(=O)N[C@@H](CCCCN)C(=O)N[C@@H](CC(C)C)C(=O)N[C@@H](CC(C)C)C(=O)N[C@@H](CCC(=O)O)C(=O)N[C@@H](CCC(N)=O)C(=O)N[C@@H](CCC(=O)O)C(=O)N[C@@H](CCCNC(=N)N)C(=O)N[C@@H](C)C(=O)N[C@@H](CCC(=O)O)C(=O)N[C@@H](CCCCN)C(=O)N[C@@H](C)C(=O)N[C@@H](CCCNC(=N)N)C(=O)N[C@@H](CCC(N)=O)C(=O)N[C@@H](CCC(N)=O)C(=O)N[C@@H](C)C(=O)N[C@@H](CCCCNC(=O)COCCOCCNC(=O)COCCOCCNC(=O)CC[C@H](NC(=O)CCCCCCCCCCCCCCCCCCC(=O)O)C(=O)O)C(=O)N[C@@H](CCC(=O)O)C(=O)N[C@@H](C)C(=O)N[C@@H](C)C(=O)N[C@@H](CCC(=O)O)C(=O)N[C@H](C(=O)N[C@@H](CC(C)C)C(=O)N[C@@H](C)C(=O)N[C@@H](CCC(N)=O)C(=O)N[C@H](C(N)=O)C(C)C)[C@@H](C)CC)[C@@H](C)CC)C(C)C)[C@@H](C)O)C(C)C [SEQ ID NO: 50, (NMeI) VTSLDVPIG αMeL LQKLLEQERAEKARQQAK((2-[2-(2-Amino-ethoxy)-ethoxy]-acetyl)2-γE-CO-(CH2)18-CO2H)EAAEILAQV-NH2] (H-[NMeI]VTSLDVPIG[αMeL]LQKLLEQERAEKARQQAK([AEEA-AEEA-γGlu-C20 diacid])EAAEILAQV-NH2) |  |  |  |  | > 1e+07
